# Data as given in patent publication US20210101928A1 (Sage Therapeutics, Inc., priority 2017, published 2021).
# Target: GABAA receptor ([35S]-TBPS binding, rat brain cortical membranes)
# Assay: Steroid inhibition of [35S]-TBPS binding
# Conditions: Table II-2, 3 nM [35S]-TBPS, in the presence of 5 mM GABA, read-out: TBPS IC50
# How it was run: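 Sprague-Dawley rat cortical P2 membranes incubated 90 min at room temperature with 3 nM [35S]-TBPS, […] GABA and test compound (0.5% DMSO) in 200 mM NaCl/50 mM Na-K phosphate pH 7.4. Nonspecific binding with […] TBPS; filtration and scintillation counting; IC50 and Imax from nonlinear fits.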
row,Compound,IC50 [nM]
1,"CC[C@]12CC[C@](O)(COC)C[C@@H]1CC[C@H]1[C@@H]3CC[C@H](C(=O)Cn4ccc(C#N)n4)[C@@]3(C)CC[C@@H]12 [II-E8, 1-(2-((3R,5S,8S,9S,10S,13S,14S,17S)-10-ethyl-3-hydroxy-3-(methoxymethyl)-13-methylhexadecahydro-1H-cyclopenta[a]phenanthren-17-yl)-2-oxoethyl)-1H-pyrazole-3-carbonitrile]",< 10
2,"CO[C@H](C)[C@]12CC[C@@](C)(O)C[C@H]1CC[C@H]1[C@@H]3CC[C@H](C(=O)Cn4nnnc4C)[C@@]3(C)CC[C@@H]12 [II-E13, 1-((3R,5R,8S,9S,10R,13S,14S,17S)-3-hydroxy-10-((R)-1-methoxyethyl)-3,13-dimethylhexadecahydro-1H-cyclopenta[a]phenanthren-17-yl)-2-(5-methyl-1H-tetrazol-1-yl)ethan-1-one]",100 to 1000
3,"CC[C@]12CC[C@@](C)(O)C[C@H]1CC[C@H]1[C@@H]3CC[C@H](C(=O)Nc4ccccc4)[C@@]3(C)CC[C@@H]12 [II-G3, (3R,5R,8S,9S,10S,13S,14S,17S)-10-ethyl-3-hydroxy-3,13-dimethyl-N-phenylhexadecahydro-1H-cyclopenta Ialphenanthrene-17-carboxamide]",< 10
4,"CC[C@]12CC[C@@](C)(O)C[C@H]1CC[C@H]1[C@@H]3CC[C@H](C(=O)c4ccccc4C)[C@@]3(C)CC[C@@H]12 [II-G5, ((3R,5R,8S,9S,10S,13S,14S,17S)-10-ethyl-3-hydroxy-3,13-dimethylhexadecahydro-1H-cyclopenta [a]phenanthren-17-yl)(o-tolyl)methanone]",10 to 100

# Same assay, conditions: Table III-1 (biological data), 3 nM [35S]-TBPS, in the presence of 5 mM GABA, read-out: TBPS IC50
row,Compound,IC50 [nM]
1,"CC[C@]12CC[C@H]3[C@@H](CC[C@@H]4C[C@](C)(O)CC[C@@H]43)[C@@H]1CC[C@@H]2C(=O)Cn1cc(C#N)cn1 [III-A10, 1-(2-((3R,5R,8R,9R,10S,13S,14S,17S)-13-ethyl-3-hydroxy-3-methylhexadecahydro-1H-cyclopenta[a]phenanthren-17-yl)-2-oxoethyl)-1H-pyrazole-4-carbonitrile]",< 10
2,"CC[C@]12CC[C@H]3[C@@H](CC[C@H]4C[C@@](O)(COC)CC[C@@H]43)[C@@H]1CC[C@@H]2C(C)=O [III-A20, 1-((3R,5S,8R,9R,10S,13S,14S,17S)-13-ethyl-3-hydroxy-3-(methoxymethyl)hexadecahydro-1H-cyclopenta [a]phenanthren-17-yl)ethan-1-one]",10 to 100
3,"CC[C@]12CC[C@H]3[C@@H](CC[C@H]4C[C@@](O)(COC)CC[C@@H]43)[C@@H]1CC[C@@H]2C(=O)Cn1nnc(C)n1 [III-A22, 1-((3R,5S,8R,9R,10S,13S,14S,17S)-13-ethyl-3-hydroxy-3-(methoxymethyl)hexadecahydro-1H-cyclopenta [a]phenanthren-17-yl)-2-(5-methyl-2H-tetrazol-2-yl)ethan-1-one]",< 10
4,"CC[C@]12CC[C@H]3[C@@H](CC[C@H]4C[C@@](O)(COC)CC[C@@H]43)[C@@H]1CC[C@@H]2C(=O)Cn1nnnc1C [III-A23, 1-((3R,5S,8R,9R,10S,13S,14S,17S)-13-ethyl-3-hydroxy-3-(methoxymethyl)hexadecahydro-1H-cyclopenta[a]phenanthren-17-yl)-2-(5-methyl-1H-tetrazol-1-yl)ethan-1-one]",100 to 1000
5,"CC[C@]12CC[C@H]3[C@@H](CC[C@@H]4C[C@](C)(O)CC[C@@]43C)[C@@H]1CC[C@@H]2C(C)=O [III-A30, 1-((3R,5R,8R,9S,10S,13S,14S,17S)-13-ethyl-3-hydroxy-3,10-dimethylhexadecahydro-1H-cyclopenta [a]phenanthren-17-yl)ethan-1-one]",< 10
6,CC[C@]12CC[C@H]3[C@@H](CC[C@@H]4C[C@](C)(O)CC[C@@]43C)[C@@H]1CC[C@@H]2C(=O)Cn1nnc(C)n1 [III-A33],< 10
7,"CC[C@]12CC[C@H]3[C@@H](CC[C@@H]4C[C@@](O)(COC)CC[C@@H]43)[C@@H]1CC[C@@H]2C(C)=O [III-B15, 1-((3R,5R,8R,9R,10S,13S,14S,17S)-13-ethyl-3-hydroxy-3-(methoxymethyl)hexadecahydro-1H-cyclopenta[a]phenanthren-17-yl)ethan-1-one]",10 to 100
8,"CC[C@]12CC[C@H]3[C@@H](CC[C@@H]4C[C@@](O)(COC)CC[C@@H]43)[C@@H]1CC[C@@H]2C(=O)Cn1cc(C#N)cn1 [III-B17, 1-(2-((3R,5R,8R,9R,10S,13S,14S,17S)-13-ethyl-3-hydroxy-3-(methoxymethyl)hexadecahydro-1H-cyclopenta[a]phenanthren-17-yl)-2-oxoethyl)-1H-pyrazole-4-carbonitrile]",10 to 100
9,"COC[C@]12CC[C@H]3[C@@H](CC[C@@H]4C[C@](C)(O)CC[C@@H]43)[C@@H]1CC[C@@H]2C(C)=O [III-C11, 1-((3R,5R,8R,9R,10S,13R,14S,17S)-3-hydroxy-13-(methoxymethyl)-3-methylhexadecahydro-1H-cyclopenta[a]phenanthren-17-yl)ethan-1-one]",10 to 100
10,"COC[C@]12CC[C@H]3[C@@H](CC[C@@H]4C[C@](C)(O)CC[C@@H]43)[C@@H]1CC[C@@H]2C(=O)Cn1cc(C#N)cn1 [III-C13, 1-(2-((3R,5R,8R,9R,10S,13R,14S,17S)-3-hydroxy-13-(methoxymethyl)-3-methylhexadecahydro-1H-cyclopenta[a]phenanthren-17-yl)-2-oxoethyl)-1H-pyrazole-4-carbonitrile]",< 10
